In general, IC50 refers to the concentration at which inhibition is half-maximal.

This note sets out measurements from US6610747B2, “Phenoxybenzylamine derivatives as SSRIs” (Pfizer Inc., priority 2000, dated 2003).

The experiment concerns the target T1, human serotonin transporter (hSERT) (Homo sapiens, UniProt P31645).
T1 construct: expressed in transfected cells; host or cells: HEK-293
The experiment in a line: Inhibition of 3H-serotonin uptake in HEK-293 cells stably transfected with the human serotonin transporter (SRI). The conditions noted are these: HEK-293 cells expressing hSERT; 3H-5HT (50 nM); 5 min incubation; room temperature; read-out: serotonin re-uptake inhibition (SRI) IC50. In kind it is cell-based. The protocol:
A number of compounds were tested for biological activity by their ability to inhibit the uptake of serotonin by human serotonin transporters as follows.
Human embryonic kidney cells (HEK-293) stably transfected with either the human serotonin transporter (hSERT), noradrenaline transporter (hNET) or dopamine transporter (hDAT) were cultured under standard cell culture techniques (cells were grown at 37° C. and 5% CO2 in DMEM-culture media (supplemented with 10% dialysed foetal calf serum (FCS), 2mM l-glutamine and 250 μg/ml geneticin)). Cells were harvested for the assay to yield a cell suspension of 750,000 cells/ml.
(i) Determination of Inhibitor Potency
All test compounds were dissolved in 100% DMSO and diluted down in assay buffer to give appropriate test concentrations. Assays were carried out in 96-well filter bottom plates. Cells (7500 cells/assay well) were pre-incubated in standard assay buffer containing either test compound, standard inhibitor or compound vehicle (1% DMSO) for 5 minutes. Reactions were started by addition of either ^3H-Serotonin, ^3H-Noradrenaline or ^3H-Dopamine substrates. All reactions were carried out at room temperature in a shaking incubator. Incubation times were 5 minutes for the hSERT and hDAT assays and 15 minutes for the hNET assay. Reactions were terminated by removal of the reaction mixture using a vacuum manifold followed by rapid washing with ice cold assay buffer. The quantity of ^3H-substrate incorporated into the cells was then quantified.
Assay plates were dried in a microwave oven, scintillation fluid added, and radioactivity measured.
(iii) Standard Assay Buffer Composition
Trizma hydrochloride (26 mM)
Note: The pH of the buffer was adjusted to 7.40 with 1M NaOH before addition of CaCl2 and pargyline.
(iv) Summary of Assay Parameters

T1 sequence (P31645 whole entry): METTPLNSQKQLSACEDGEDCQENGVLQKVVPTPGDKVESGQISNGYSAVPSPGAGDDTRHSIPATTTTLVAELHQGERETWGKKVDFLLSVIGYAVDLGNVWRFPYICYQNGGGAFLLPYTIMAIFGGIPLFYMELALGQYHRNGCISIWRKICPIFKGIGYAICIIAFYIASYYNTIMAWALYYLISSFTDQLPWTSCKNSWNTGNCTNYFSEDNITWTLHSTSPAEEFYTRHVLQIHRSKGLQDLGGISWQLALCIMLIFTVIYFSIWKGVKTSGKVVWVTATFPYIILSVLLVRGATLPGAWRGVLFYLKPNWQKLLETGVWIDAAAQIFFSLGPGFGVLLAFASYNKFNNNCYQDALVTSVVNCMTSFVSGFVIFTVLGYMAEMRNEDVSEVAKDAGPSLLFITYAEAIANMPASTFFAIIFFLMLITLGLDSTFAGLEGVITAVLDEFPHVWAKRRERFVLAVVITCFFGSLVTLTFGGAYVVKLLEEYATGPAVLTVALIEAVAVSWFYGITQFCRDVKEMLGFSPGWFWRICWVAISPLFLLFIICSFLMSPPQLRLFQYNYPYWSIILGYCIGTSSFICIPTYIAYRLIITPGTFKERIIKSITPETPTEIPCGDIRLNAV

As for `CN(C)Cc1cc(S(N)(=O)=O)ccc1Oc1ccc2c(c1)CCS2` [Example 16, 4-(2,3-dihydro-1-benzothien-5-yloxy)-3-[(dimethylamino)methyl]-benzenesulfonamide], the IC50 came out at 4.7 nM.
Under `CN(C)Cc1ccccc1Oc1ccc2ncccc2c1` [Example 29, N,N-dimethyl-N-[2-(6-quinolinyloxy)benzyl]amine] stands 2 nM; under `CNCc1cc(C(=O)NC)ccc1Oc1ccc2c(c1)CCS2` [Example 62, 4-(2,3-dihydro-1-benzothien-5-yloxy)-N-methyl-3-[(methylamino)methyl]-benzamide], 3.7 nM.
